Measurements: patent US20230127944A1, “BROAD-SPECTRUM CARBAPENEMS” (priority 2019, published 2023)
≈ marks a conversion by molar mass, not a printed value.

Experiments:
Format in all cases: cell-based
S. aureus USA 300 = test: broth microdilution MIC assay, S. aureus USA300; settings: Staphylococcus aureus; S. aureus USA300 (MRSA); read-out: MIC, S. aureus USA300
Experimental: (§1) To determine the ability of test compounds to inhibit the growth of bacterial strains, classic cell-based broth microdilution MIC assays were employed. MIC assays are performed according to CLSI methods except where otherwise noted (CLSI, 2011 and CLSI, 2009). The reference strains S. aureus ATCC 29213 (methicillin sensitive), S. aureus ATCC 33591 (methicillin-resistant), E. coli ATCC 25922 (wild-type/QC strain), P. aeruginosa ATCC 27853 (wild-type/QC strain), and the clinical isolate P. aeruginosa PA 8 were used to determine the ability of the exemplary carbapenem compounds to inhibit bacterial growth. An expanded panel of methicillin resistance S. aureus (MRSA) and Pseudomonas was also used to determine the ability of exemplary carbapenem compounds to inhibit bacterial growth across a broader representation of those species. To determine activity in MRSA and in addition to S. aureus ATCC 33591, S. aureus USA 300 and USA 600, some of the most common clones found to cause human infection, were also used. To further gauge the impact on the carbapenem compounds due to various resistance mechanisms in Pseudomonas, the following strains were included: P. aeruginosa 35151 (hyper-permeable strain), P. aeruginosa ΔmexAB-OprM (an efflux pump knockout), and P. aeruginosa Paβ-173 (a clinical isolate of reduced carbapenem susceptibility). Briefly, cryo-preserved bacterial cultures of clinical strains are streaked for isolation on appropriate agar medium, in this case Mueller Hinton II agar. Following incubation to allow formation of colonies, these plates are sealed with parafilm and stored refrigerated for up to two weeks. For preparation of assay inocula and to ensure low variability, at least 5 colonies are picked from the agar plates with an inoculating loop and aseptically transferred to a culture tube containing 3 mL of Mueller-Hinton Broth (supplemented with divalent cations to required levels based on Manufacturers' specification). The broth culture is grown for 3-5 hours at 37° C. with shaking at 200 rpm. Meanwhile, 2-fold serial dilutions of test compounds are conducted in a 96 well plate with a final volume of 75 μL per well at 2-fold the final desired concentration. After the dilution plates are set up the growing cultures are then diluted in a cuvette containing MH II broth and the optical density is measured at 600 nm. Inocula are diluted such that 75 μL of this culture in Mueller-Hinton Broth results in a starting bacterial concentration of 5×10^5 CFU/mL when added to the dilution plates. The plates are incubated 16-20 hours at 37° C. The MIC is read visually as the lowest concentration well with no bacterial growth.

[1] = system: P. aeruginosa ATCC 27853 (wild-type/QC strain); test: broth microdilution MIC assay, P. aeruginosa 27853; settings: Pseudomonas aeruginosa, ATCC27853; read-out: MIC, P. aeruginosa 27853
Experimental: as §1

[2] = system: S. aureus ATCC 33591 (methicillin-resistant); test: broth microdilution MIC assay, S. aureus 33591; settings: Staphylococcus aureus, ATCC33591; S. aureus 33591, methicillin-resistant; read-out: MIC, S. aureus 33591
Experimental: as §1

S. aureus USA 600 = test: broth microdilution MIC assay, S. aureus USA600; settings: Staphylococcus aureus; S. aureus USA600 (MRSA); read-out: MIC, S. aureus USA600
Experimental: as §1

[3] = system: P. aeruginosa 35151 (hyper-permeable strain); test: broth microdilution MIC assay, P. aeruginosa 35151; settings: Pseudomonas aeruginosa, read-out: MIC, P. aeruginosa 35151
Experimental: as §1

[4] = system: E. coli ATCC 25922 (wild-type/QC strain); test: broth microdilution MIC assay, E. coli 25922; settings: Escherichia coli, ATCC25922; read-out: MIC, E. coli 25922
Experimental: as §1

[5] = system: P. aeruginosa ΔmexAB-OprM (an efflux pump knockout); test: broth microdilution MIC assay, P. aeruginosa ΔmexAB-OprM; settings: Pseudomonas aeruginosa, read-out: MIC, P. aeruginosa ΔmexAB-OprM
Experimental: as §1

P. aeruginosa Paeβ-17 = test: broth microdilution MIC assay, P. aeruginosa Paeβ-17; settings: Pseudomonas aeruginosa, read-out: MIC, P. aeruginosa Paeβ-17
Experimental: as §1

Compound | MIC (S. aureus USA 300) [µg/mL] | MIC [1] [µg/mL] | MIC [2] [µg/mL] | MIC (S. aureus USA 600) [µg/mL] | MIC [3] [µg/mL] | MIC [4] [µg/mL] | MIC [5] [µg/mL] | MIC (P. aeruginosa Paeβ-17) [µg/mL]
C[C@@H](O)[C@H]1C(=O)N2C(C(=O)O)=C(SC3CN([C@H]4CC[C@H](CNC(=N)N)CC4)C3)[C@H](C)[C@H]12 [Example 66, (4R,5S,6S)-3-((1-((1R,4R)-4-(guanidinomethyl)cyclohexyl)azetidin-3-yl)thio)-6-((R)-1-hydroxyethyl)-4-methyl-7-oxo-1-azabicyclo[3.2.0]hept-2-ene-2-carboxylic acid] | 1 to 4 (≈ 2.21 to 8.86 µM) | 1 to 4 (≈ 2.21 to 8.86 µM) | 1 to 4 (≈ 2.21 to 8.86 µM) | 1 to 4 (≈ 2.21 to 8.86 µM) | < 1 | < 1 | 1 to 4 (≈ 2.21 to 8.86 µM) | 8 to 32 (≈ 17.7 to 70.9 µM)
C[C@@H](O)[C@H]1C(=O)N2C(C(=O)O)=C(SC3CN(C4CCNC4)C3)[C@H](C)[C@H]12 (stereo partly drawn) [Example 37, (4R,5S,6S)-6-((R)-1-hydroxyethyl)-4-methyl-7-oxo-3-((1-(pyrrolidin-3-yl)azetidin-3-yl)thio)-1-azabicyclo[3.2.0]hept-2-ene-2-carboxylic acid] | 1 to 4 (≈ 2.72 to 10.9 µM) | 8 to 32 (≈ 21.8 to 87.1 µM) | 8 to 32 (≈ 21.8 to 87.1 µM) | 1 to 4 (≈ 2.72 to 10.9 µM) | < 1 | < 1 | 1 to 4 (≈ 2.72 to 10.9 µM) | 8 to 32 (≈ 21.8 to 87.1 µM)
C[C@@H](O)[C@H]1C(=O)N2C(C(=O)O)=C(S[C@H]3C[C@H](N[C@H]4CC[C@H](NC(=N)N)C4)C3)[C@H](C)[C@H]12 [Example 73, (4R,5S,6S)-3-(((1S,3R)-3-(((1S,3S)-3-guanidinocyclopentyl)amino)cyclobutyl)thio)-6-((R)-1-hydroxyethyl)-4-methyl-7-oxo-1-azabicyclo[3.2.0]hept-2-ene-2-carboxylic acid] | 1 to 4 (≈ 2.29 to 9.14 µM) | 1 to 4 (≈ 2.29 to 9.14 µM) | 8 to 32 (≈ 18.3 to 73.1 µM) | 1 to 4 (≈ 2.29 to 9.14 µM) | < 1 | < 1 | 8 to 32 (≈ 18.3 to 73.1 µM) | 1 to 4 (≈ 2.29 to 9.14 µM)
C[C@@H](O)[C@H]1C(=O)N2C(C(=O)O)=C(SC3CN([C@H]4C[C@H](CN)C4)C3)[C@H](C)[C@H]12 [Example 2, (4R,5S,6S)-3-((1-((1r,3R)-3-(aminomethyl)cyclobutyl)azetidin-3-yl)thio)-6-((R)-1-hydroxyethyl)-4-methyl-7-oxo-1-azabicyclo[3.2.0]hept-2-ene-2-carboxylic acid] | 1 to 4 (≈ 2.62 to 10.5 µM) | 8 to 32 (≈ 21 to 83.9 µM) | 8 to 32 (≈ 21 to 83.9 µM) | 1 to 4 (≈ 2.62 to 10.5 µM) | < 1 | < 1 | 1 to 4 (≈ 2.62 to 10.5 µM) | > 32
C[C@@H](O)[C@H]1C(=O)N2C(C(=O)O)=C(SC3CN([C@@H]4CCC[C@H](N)C4)C3)[C@H](C)[C@H]12 [Example 14, (4R,5S,6S)-3-((1-((1R,3S)-3-aminocyclohexyl)azetidin-3-yl)thio)-6-((R)-1-hydroxyethyl)-4-methyl-7-oxo-1-azabicyclo[3.2.0]hept-2-ene-2-carboxylic acid] | 1 to 4 (≈ 2.53 to 10.1 µM) | 1 to 4 (≈ 2.53 to 10.1 µM) | 1 to 4 (≈ 2.53 to 10.1 µM) | 1 to 4 (≈ 2.53 to 10.1 µM) | < 1 | < 1 | 1 to 4 (≈ 2.53 to 10.1 µM) | 8 to 32 (≈ 20.2 to 80.9 µM)
C[C@@H](O)[C@H]1C(=O)N2C(C(=O)O)=C(S[C@@H]3CC[C@H](NC4CCN(C(=N)N)CC4)C3)[C@H](C)[C@H]12 [Example 49, (4R,5S,6S)-3-(((1R,3S)-3-((1-carbamimidoylpiperidin-4-yl)amino)cyclopentyl)thio)-6-((R)-1-hydroxyethyl)-4-methyl-7-oxo-1-azabicyclo[3.2.0]hept-2-ene-2-carboxylic acid] | 1 to 4 (≈ 2.21 to 8.86 µM) | 1 to 4 (≈ 2.21 to 8.86 µM) | 1 to 4 (≈ 2.21 to 8.86 µM) | 1 to 4 (≈ 2.21 to 8.86 µM) | < 1 | < 1 | 1 to 4 (≈ 2.21 to 8.86 µM) | 8 to 32 (≈ 17.7 to 70.9 µM)
C[C@@H](O)[C@H]1C(=O)N2C(C(=O)O)=C(SC3CN(Cc4cnc(N)nc4)C3)[C@H](C)[C@H]12 [Example 22, (4R,5S,6S)-3-((1-((2-aminopyrimidin-5-yl)methyl)azetidin-3-yl)thio)-6-((R)-1-hydroxyethyl)-4-methyl-7-oxo-1-azabicyclo[3.2.0]hept-2-ene-2-carboxylic acid] | 1 to 4 (≈ 2.47 to 9.86 µM) | 8 to 32 (≈ 19.7 to 78.9 µM) | 8 to 32 (≈ 19.7 to 78.9 µM) | 1 to 4 (≈ 2.47 to 9.86 µM) | < 1 | < 1 | 1 to 4 (≈ 2.47 to 9.86 µM) | > 32
C[C@@H](O)[C@H]1C(=O)N2C(C(=O)O)=C(S[C@H]3C[C@@H](N[C@H]4CC[C@@H](N)C4)C3)[C@H](C)[C@H]12 [Example 76, (4R,5S,6S)-3-(((1R,3S)-3-(((1S,3R)-3-aminocyclopentyl)amino)cyclobutyl)thio)-6-((R)-1-hydroxyethyl)-4-methyl-7-oxo-1-azabicyclo[3.2.0]hept-2-ene-2-carboxylic acid] | 1 to 4 (≈ 2.53 to 10.1 µM) | 1 to 4 (≈ 2.53 to 10.1 µM) | 8 to 32 (≈ 20.2 to 80.9 µM) | 1 to 4 (≈ 2.53 to 10.1 µM) | < 1 | < 1 | 8 to 32 (≈ 20.2 to 80.9 µM) | 1 to 4 (≈ 2.53 to 10.1 µM)
C[C@@H](O)[C@H]1C(=O)N2C(C(=O)O)=C(SC3CN(Cc4ccc(N)nc4)C3)[C@H](C)[C@H]12 [Example 23, (4R,5S,6S)-3-((1-((6-aminopyridin-3-yl)methyl)azetidin-3-yl)thio)-6-((R)-1-hydroxyethyl)-4-methyl-7-oxo-1-azabicyclo[3.2.0]hept-2-ene-2-carboxylic acid] | 1 to 4 (≈ 2.47 to 9.89 µM) | 8 to 32 (≈ 19.8 to 79.1 µM) | 8 to 32 (≈ 19.8 to 79.1 µM) | 1 to 4 (≈ 2.47 to 9.89 µM) | < 1 | < 1 | 1 to 4 (≈ 2.47 to 9.89 µM) | > 32
C[C@@H](O)[C@H]1C(=O)N2C(C(=O)O)=C(S[C@@H]3CCN(C[C@H]4CC[C@@H](N)CC4)C3)[C@H](C)[C@H]12 [Example 72, (4R,5S,6S)-3-(((R)-1-(((1S,4S)-4-aminocyclohexyl)methyl)pyrrolidin-3-yl)thio)-6-((R)-1-hydroxyethyl)-4-methyl-7-oxo-1-azabicyclo[3.2.0]hept-2-ene-2-carboxylic acid] | 1 to 4 (≈ 2.36 to 9.44 µM) | 1 to 4 (≈ 2.36 to 9.44 µM) | 8 to 32 (≈ 18.9 to 75.5 µM) | 1 to 4 (≈ 2.36 to 9.44 µM) | < 1 | < 1 | 8 to 32 (≈ 18.9 to 75.5 µM) | 1 to 4 (≈ 2.36 to 9.44 µM)
C[C@@H](O)[C@H]1C(=O)N2C(C(=O)O)=C(S[C@H]3C[C@@H](N[C@@H]4CC[C@@H](N)C4)C3)[C@H](C)[C@H]12 [Example 78, (4R,5S,6S)-3-(((1S,3S)-3-(((1R,3R)-3-aminocyclopentyl)amino)cyclobutyl)thio)-6-((R)-1-hydroxyethyl)-4-methyl-7-oxo-1-azabicyclo[3.2.0]hept-2-ene-2-carboxylic acid] | 1 to 4 (≈ 2.53 to 10.1 µM) | 1 to 4 (≈ 2.53 to 10.1 µM) | 8 to 32 (≈ 20.2 to 80.9 µM) | 1 to 4 (≈ 2.53 to 10.1 µM) | < 1 | < 1 | 8 to 32 (≈ 20.2 to 80.9 µM) | 1 to 4 (≈ 2.53 to 10.1 µM)
C[C@@H](O)[C@H]1C(=O)N2C(C(=O)O)=C(S[C@@H]3CCN(Cc4ccc(N)nc4)C3)[C@H](C)[C@H]12 [Example 25, (4R,5S,6S)-3-(((R)-1-((6-aminopyridin-3-yl)methyl)pyrrolidin-3-yl)thio)-6-((R)-1-hydroxyethyl)-4-methyl-7-oxo-1-azabicyclo[3.2.0]hept-2-ene-2-carboxylic acid] | 1 to 4 (≈ 2.39 to 9.56 µM) | 8 to 32 (≈ 19.1 to 76.5 µM) | 8 to 32 (≈ 19.1 to 76.5 µM) | 1 to 4 (≈ 2.39 to 9.56 µM) | < 1 | < 1 | 1 to 4 (≈ 2.39 to 9.56 µM) | > 32
